Source: US11291630B2, “Gelling compositions for treating malignant tumours and/or preventing tumour recurrence” (Centre National de la Recherche Scientifique (CNRS), priority 2015, dated 2022)

Experiment: Measurement of gelation temperature by DSC and rheology (Example 1)
Format: physicochemical
Conditions: addition of 0.5% 5-FU to gel P407/P188/Alginate (20/2/1) (FIG. 2)
Protocol: The gelation temperature (Tgel) was determined by Differential Scanning calorimetry (DSC) and rheology.
By DSC: between 20-35 mg of the solution were sealed in aluminium pans and placed into the DSC instrument (DSC 1, Mettler Toledo). An empty aluminium pan (size: 40 μL) served as a reference sample. The instrument was equilibrated at 5° C. for 7 min prior to initiation of the scans. The sample was then heated to 40° C. at a heating rate of 5° C./min. Data analysis was performed with the software preinstalled in the instrument (STARe Software). The gelation temperature was determined as the small enthalpy change which was visible around at 10-12° C. above the big endothermic peak caused by micellization of the poloxamers, as already done in other studies (Nie et al, Int. J. Nanomedicine. 6 (2011) 151-166. doi:10.2147/IJN.S15057).
By rheology: a deformation was applied and varied between 0.01 to 100% at a fixed frequency of 1 Hz with a cone/plan mobile with an angle of 1°, a diameter of 50 mm and with a gap of 0.1 mm. The sample was left at room temperature for 1 hour, then approximately 750 μL was loaded on the pelletier plan which is submitted to a temperature increase. The viscoelastic moduli G′ and G″ are measured. The gelation temperature corresponds to the curve intersections.

increase of the gelation temperature: 2 °C
SMILES: O=c1[nH]cc(F)c(=O)[nH]1 [Composition 5-FU, 5-Fluorouracil]
